Tested on: Mycobacterium tuberculosis H37Rv (ATCC: 25177)
Assay: Resazurin Microplate Assay (REMA), anti-tubercular activity, H37Rv strain
Assay type: cell-based
Conditions: 192 h, read-out: Anti-tubercular activity against Mycobacterium tuberculosis (MIC), H37Rv

**Q.** For Cc1cc[n+](CC(=O)c2ccc(F)cc2)cc1.[Br-] [Compound 3d, 1-(2-(4-Fluorophenyl)-2-oxoethyl)-4-methylpyridin-1-ium bromide], which MIC is on record?
**A.** 8 µg/mL

— US12227480B1 (priority 2023, dated 2025)
